Test results reported in patent US5795860A, “Analogs for specific oligosaccharide-protein interactions and uses therefor” (Repligen Corporation, priority 1994, dated 1998).

Assays:
[1] = affinity coelectrophoresis of ELQ-IL-8 with heparan sulfate; type: binding; conditions: compared with native IL-8
[2] = system: "Glyceptor" sequences on post-capillary endothelium of human dermal tissue; test: binding of 125I-labeled chemokine to human dermal tissue, microscopic autoradiography; conditions: for binding of 125I-labeled chemokine to vasculature / post-capillary endothelium: microscopic autoradiography
Experimental: A sample of human dermal tissue of about 1 mm^3 is incubated with ^125 I-labeled human IL-8 as described in the art (see, e.g., Rot, A. (1992) Cytokine 4, 347, the disclosure of which is incorporated herein by reference).

neutrophils = test: activation or attraction of neutrophils; type: cell-based
[3] = affinity coelectrophoresis of ELQ-IL-8 with heparin; type: binding; conditions: compared with native IL-8
From the text: Commercial heparin (porcine mucosa, Sigma Biochemical) is radioactively labeled by first incorporating tyramine at the reducing end of the chains and then introducing radioactive iodine using the chloramine T reaction, a procedure well known in the art. The heparin is size fractionated on a Sephadex G-100 column (Pharmacia) and the last 10% of the heparin to elute is selected and utilized for the labeling. The labeled low molecular weight heparin is then bound to varying concentrations of IL-8 under equilibrium conditions using the technique of affinity coelectrophoresis, as described by Lee and Lander, Proc. Nat. Acad. Sci., U.S.A. (1991) 88, 2768-2772. Briefly, a horizontal 1% agarose gel is poured, using low melting point agarose, that contains nine rectangular wells of equal dimensions (about 3×10 mm). The buffer used comprises 125 mM sodium acetate, 50 mM MOPSO, pH 7.0. 0.5% 3-[3-cholamidopropyl) dimethylammonio]-1-propanesulfonate (CHAPS) may be used in the buffer to prevent adventitious binding of protein to vessel walls. The wells in the horizontal gel are subsequently filled with a requisite amount of 1% agarose which contains varying concentrations of IL-8 ranging from about 80 nM up to about 80 μM. The IL-8 may be produced by recombinant means as is well known in the art or may alternatively be produced as a synthetic peptide. […]

[4] = heparin-agarose column, NaCl gradient elution; type: binding; conditions: NaCl gradient 0.125M up to 1M; 50 mM Tris
Experimental: A mutant IL-8 gene is synthesized in which the ELR sequence at positions 4-6 (Seq. ID No. 1) is modified to glu-leu-gln (ELQ). The modified gene is expressed in E. coli by standard techniques well known to those skilled in the art and the protein product is extracted from the lysed cell pellet with 6M guanidine-HCl. The extract is dialyzed against 50 mM Tris, 0.125M NaCl and passed over a heparin-agarose column. […] The mutant chemokine is eluted from the column at about 0.6-0.7M salt.

[5] = system: "Glyceptor" sequence-effector molecule interactions; test: interference with "Glyceptor" sequence-effector molecule interactions; type: binding
IL-8 = IL-8 mediated inflammation, influx of polymorphonuclear leukocytes into the peritoneal cavity; type: in vivo, mouse; conditions: protamine chloride 100-250 mg i.v. (tail vein), IL-8 i.p.

## ELQ-IL-8: mutant IL-8 in which the ELR sequence at positions 4-6 (Seq. ID No. 1) is modified to glu-leu-gln (ELQ)
[1]
  binding to heparan sulfate: behaves in a similar fashion to native IL-8
[2]; 10 fold excess over radiolabeled native IL-8, ex vivo
  binding of labeled native IL-8 to vasculature in presence of ELQ-IL-8: substantially reduced
[2]
  binding of 125I-labeled chemokine to vasculature / post-capillary endothelium: Binding occurs in the same pattern as observed with native IL-8
neutrophils
  activation or attraction of neutrophils: not able to activate or attract neutrophils
[3]
  binding to heparin: behaves in a similar fashion to native IL-8
[4]
  salt concentration eluting from heparin-agarose column: 0.6 to 0.7 M

## IL-8: 125I-labeled human IL-8
[2]
  binding of 125I-labeled chemokine to vasculature / post-capillary endothelium: binds preferentially to certain regions of the vasculature

## Cc1ccc(C(=O)Nc2ccc(S(=O)(=O)O)c3cc(S(=O)(=O)O)cc(S(=O)(=O)O)c23)cc1NC(=O)c1cccc(NC(=O)Nc2cccc(C(=O)Nc3cc(C(=O)Nc4ccc(S(=O)(=O)O)c5cc(S(=O)(=O)O)cc(S(=O)(=O)O)c45)ccc3C)c2)c1 [suramin]
[5]
  interference with "Glyceptor" sequence-effector molecule interactions: interferes with "Glyceptor" sequence-effector molecule interactions

## protamine chloride
Toxicity of protamine
  toxicity: generally toxic agent
IL-8
  inhibition of neutrophil influx: significant inhibition of neutrophil influx
